Values of other authors as cited in US12612577B2, “Perfumed compositions, process of preparing thereof and uses” (MINASOLVE SAS, priority 2019, dated 2026).

Tested on: bacteria and fungi
Details: against bacteria and fungi

## CCCC(O)CO (stereo not shown) [1,2-pentanediol]
  minimum inhibitory concentration (MIC): 5%
